Experimental data reported in ChEMBL document CHEMBL1147755, “5-heteroatom substituted pyrazoles as canine COX-2 inhibitors. Part 1: Structure-activity relationship studies of 5-alkylamino pyrazoles and discovery of a potent, selective, and orally active analog” (Bioorg Med Chem Lett, 2006).
Activity calls are given as the source filed them. The rule behind the calls is not given here.

Legend:
[1] = target: T1, Prostaglandin G/H synthase 1 (Canis lupus familiaris, UniProt Q8HZR1)
T1 sequence (Q8HZR1 whole entry): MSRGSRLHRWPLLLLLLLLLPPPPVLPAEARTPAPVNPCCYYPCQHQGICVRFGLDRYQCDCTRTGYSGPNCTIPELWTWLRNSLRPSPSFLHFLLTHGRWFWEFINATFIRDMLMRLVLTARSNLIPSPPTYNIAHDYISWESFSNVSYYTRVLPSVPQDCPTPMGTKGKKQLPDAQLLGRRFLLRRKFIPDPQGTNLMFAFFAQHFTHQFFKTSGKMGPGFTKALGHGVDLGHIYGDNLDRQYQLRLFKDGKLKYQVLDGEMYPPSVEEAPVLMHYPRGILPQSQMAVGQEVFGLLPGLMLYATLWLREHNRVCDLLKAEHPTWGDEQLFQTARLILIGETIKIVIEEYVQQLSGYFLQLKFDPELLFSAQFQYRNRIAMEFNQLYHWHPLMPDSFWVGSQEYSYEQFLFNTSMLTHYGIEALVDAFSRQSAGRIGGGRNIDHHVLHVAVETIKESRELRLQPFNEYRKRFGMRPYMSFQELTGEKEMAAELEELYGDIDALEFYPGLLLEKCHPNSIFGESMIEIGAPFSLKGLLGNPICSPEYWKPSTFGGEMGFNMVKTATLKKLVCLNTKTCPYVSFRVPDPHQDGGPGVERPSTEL
Description: Inhibitory activity against COX1 in canine whole blood

[2] = species: Canis lupus familiaris; experiment: Selectivity of COX1 over COX2 in canine whole blood assay; type: tissue-based
[3] = target: T2, Cyclooxygenase-2 (Canis lupus familiaris, UniProt Q8SPQ9)
T2 sequence (Q8SPQ9 whole entry): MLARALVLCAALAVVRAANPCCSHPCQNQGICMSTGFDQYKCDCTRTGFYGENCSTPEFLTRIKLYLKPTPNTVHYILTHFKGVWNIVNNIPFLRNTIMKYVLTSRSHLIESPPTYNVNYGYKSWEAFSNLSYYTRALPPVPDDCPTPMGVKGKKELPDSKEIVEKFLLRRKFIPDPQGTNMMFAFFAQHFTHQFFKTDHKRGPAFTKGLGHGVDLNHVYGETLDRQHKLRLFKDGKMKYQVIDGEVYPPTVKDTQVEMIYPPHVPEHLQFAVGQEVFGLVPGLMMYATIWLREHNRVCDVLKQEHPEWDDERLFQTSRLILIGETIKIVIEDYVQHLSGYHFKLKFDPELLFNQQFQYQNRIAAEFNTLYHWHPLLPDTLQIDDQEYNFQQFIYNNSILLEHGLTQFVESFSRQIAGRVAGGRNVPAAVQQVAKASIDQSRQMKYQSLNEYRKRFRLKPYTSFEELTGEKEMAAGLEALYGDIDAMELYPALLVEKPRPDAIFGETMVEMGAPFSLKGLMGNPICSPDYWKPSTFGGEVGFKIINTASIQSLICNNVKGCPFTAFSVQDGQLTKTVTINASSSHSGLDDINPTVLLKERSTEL
Description: Inhibitory activity against COX2 in canine whole blood

[4] = Tmax in dog administered at 2 mg/kg, po; type: ADME, organism-based, Canis lupus familiaris; parameters: dose 2 mg/kg, route oral; settings: in vivo
[5] = tested on: Canis familiaris; experiment: AUC in dog administered at 2 mg/kg, po; type: ADME, organism-based, Canis lupus familiaris, Plasma; parameters: dose 2 mg/kg, route oral; settings: in vivo
[6] = Half life in dog administered at 2 mg/kg, po; type: ADME, organism-based, Canis lupus familiaris; parameters: dose 2 mg/kg, route oral; settings: in vivo
[7] = Cmax in dog administered at 2 mg/kg, po; type: ADME, organism-based, Canis lupus familiaris; parameters: dose 2 mg/kg, route oral; settings: in vivo
[8] = Half life in cat administered at 0.5 mg/kg, sc; type: ADME, organism-based, Felis catus; parameters: dose 0.5 mg/kg, route subcutaneous; settings: in vivo
[9] = tested on: Canis familiaris; experiment: Decrease in lameness induced by synovitis in knee joints of Beagle dogs at 4 mg/kg; type: functional, organism-based; parameters: dose 4 mg/kg; settings: Canis lupus familiaris, Knee joint
[10] = Tmax in cat administered at 0.5 mg/kg, sc; type: ADME, organism-based, Felis catus; parameters: dose 0.5 mg/kg, route subcutaneous; settings: in vivo
[11] = Cmax in cat administered at 0.5 mg/kg, sc; type: ADME, organism-based, Felis catus; parameters: dose 0.5 mg/kg, route subcutaneous; settings: in vivo
[12] = AUC in cat administered at 0.5 mg/kg, sc; type: ADME, organism-based, Felis catus; parameters: dose 0.5 mg/kg, route subcutaneous; settings: plasma

Compound	IC50 [1] [µM]	Ratio IC50 [2]	IC50 [3] [µM]	Tmax [4] [h]	AUC [5] [ng·h/mL]	half-life [6] [h]	Cmax [7] [ng/mL]	half-life [8] [h]	Activity [9]	Tmax [10] [h]	Cmax [11] [ng/mL]	AUC [12] [ng·h/mL]
Cc1ccc(CNc2c(C#N)c(C(F)(F)F)nn2-c2ccc(S(C)(=O)=O)cn2)cc1	21.5	187	0.115	–	–	–	–	–	–	–	–	–
CS(=O)(=O)c1ccc(-n2nc(C(F)(F)F)c(C#N)c2N2CCCCC2)nc1	> 50	> 325	0.15	–	–	–	–	–	–	–	–	–
CCC(CC)Nc1c(C#N)c(C(F)(F)F)nn1-c1ccc(S(C)(=O)=O)cn1	6.7	33.8	0.197	–	–	–	–	–	–	–	–	–
CC(C)(C)CNc1c(C#N)c(C(F)F)nn1-c1ccc(S(N)(=O)=O)cn1	18	48.2	0.36	–	–	–	–	–	–	–	–	–
CC(C)(C)CNc1c(C#N)c(C(F)(F)F)nn1-c1ccc(S(N)(=O)=O)cn1	13.2	98.7	0.13	–	–	–	–	–	–	–	–	–
CS(=O)(=O)c1ccc(-n2nc(C(F)(F)F)c(C#N)c2NCc2cccs2)nc1	5.6	44.5	0.125	–	–	–	–	–	–	–	–	–
CS(=O)(=O)c1ccc(-n2nc(C(F)(F)F)c(C#N)c2NC2CC3CCC2C3)nc1 (configuration not stated)	15.5	107	0.144	–	–	–	–	–	–	–	–	–
CC(C)C(C)Nc1c(C#N)c(C(F)(F)F)nn1-c1ccc(S(C)(=O)=O)cn1 (configuration not stated)	3.4	25.8	0.132	–	–	–	–	–	–	–	–	–
CC1CCCCC1Nc1c(C#N)c(C(F)(F)F)nn1-c1ccc(S(C)(=O)=O)cn1 (configuration not stated)	10.8	36	0.297	–	–	–	–	–	–	–	–	–
CS(=O)(=O)c1ccc(-n2nc(C(F)(F)F)c(C#N)c2NCC2OCCO2)nc1	> 50	> 397	0.126	–	–	–	–	–	–	–	–	–
N#Cc1c(C(F)(F)F)nn(-c2ccc(S(N)(=O)=O)cn2)c1NC1CC2CCC1C2 (configuration not stated)	15.5	107	0.14	–	–	–	–	–	–	–	–	–
C[C@@H]1C[C@H](C)CN(c2c(C#N)c(C(F)F)nn2-c2ccc(S(N)(=O)=O)cn2)C1	7	34.7	0.21	0.5	2100	1.5	506	–	–	–	–	–
CC1CC(C)CN(c2c(C#N)c(C(F)(F)F)nn2-c2ccc(S(N)(=O)=O)cn2)C1 (configuration not stated)	42.6	22.8	1.87	–	–	–	–	–	–	–	–	–
C[C@@H]1CN(c2c(C#N)c(C(F)(F)F)nn2-c2ccc(S(C)(=O)=O)cn2)C[C@H](C)O1	> 50	> 357	0.14	1	1950	30	134	–	–	–	–	–
CC1CC(C)CN(c2c(C#N)c(C(F)(F)F)nn2-c2ccc(S(C)(=O)=O)cn2)C1 (configuration not stated)	> 50	> 526	0.095	–	–	–	–	–	–	–	–	–
CS(=O)(=O)c1ccc(-n2nc(C(F)F)c(C#N)c2N2CCCCCC2)nc1	12.9	99.3	0.13	0.8	281	2.1	92	–	–	–	–	–
CC(C)(C)CNc1c(C#N)c(C(F)(F)F)nn1-c1ccc(S(C)(=O)=O)cn1	> 50	> 217	0.23	–	–	–	–	–	–	–	–	–
C[C@@H]1CN(c2c(C#N)c(C(F)F)nn2-c2ccc(S(C)(=O)=O)cn2)C[C@H](C)O1	43.8	186	0.24	1.4	4830	11	815	60	Active	28	194	26800
N#Cc1c(C(F)(F)F)nn(-c2ccc(S(N)(=O)=O)cn2)c1NCC1CCCO1 (configuration not stated)	14.6	11.7	1.25	1.5	1360	1	528	–	–	–	–	–
CS(=O)(=O)c1ccc(-n2nc(C(F)(F)F)c(C#N)c2NCC2CC2)nc1	22	200	0.11	–	–	–	–	–	–	–	–	–
CCC(C)CNc1c(C#N)c(C(F)F)nn1-c1ccc(S(N)(=O)=O)cn1 (configuration not stated)	4	21.9	0.2	–	–	–	–	–	–	–	–	–
C[C@@H]1CN(c2c(C#N)c(C(F)F)nn2-c2ccc(S(N)(=O)=O)cn2)C[C@H](C)O1	> 50	> 10	5	–	–	–	–	–	–	–	–	–
C[C@@H]1CN(c2c(C#N)c(C(F)(F)F)nn2-c2ccc(S(N)(=O)=O)cn2)C[C@H](C)O1	> 50	> 6.3	7.9	–	–	–	–	–	–	–	–	–
CC(C)(C)CNc1c(C#N)c(C(F)F)nn1-c1ccc(S(C)(=O)=O)cn1	36.3	180	0.2	–	–	–	–	–	–	–	–	–
CC1CCCN(c2c(C#N)c(C(F)F)nn2-c2ccc(S(C)(=O)=O)cn2)C1 (configuration not stated)	2	75	0.03	0.5	450	4.6	151	–	–	–	–	–
CS(=O)(=O)c1ccc(-n2nc(C(F)F)c(C#N)c2NC2CC3CCC2C3)nc1 (configuration not stated)	20.9	49.8	0.42	–	–	–	–	–	–	–	–	–
CCC(C)CNc1c(C#N)c(C(F)(F)F)nn1-c1ccc(S(N)(=O)=O)cn1 (configuration not stated)	4.5	23.1	0.19	1.3	910	2.4	310	–	–	–	–	–
CS(=O)(=O)c1ccc(-n2nc(C(F)F)c(C#N)c2NCC2OCCO2)nc1	> 50	> 259	0.19	–	–	–	–	–	–	–	–	–
CC(C)Nc1c(C#N)c(C(F)(F)F)nn1-c1ccc(S(C)(=O)=O)cn1	40.8	114	0.36	–	–	–	–	–	–	–	–	–
CS(=O)(=O)c1ccc(-n2nc(C(F)(F)F)c(C#N)c2NCC2CCCO2)nc1 (configuration not stated)	16.5	262	0.063	0.5	118	2	86	–	–	–	–	–
